Patent US6355799B1, “Substituted benzene compounds, process for their preparation, and herbicidal and defoliant compositions containing them” (ISK Americas Incorporated, priority 1997, dated 2002)

Assays:
Assay type in all cases: in vivo
[1] = tested on: upland rice (Oryza sp., var. Tebonnet, RICE); experiment: Pre-emerge test, crop safety; conditions: pre-emerge; for phytotoxicity rating RICE (crop damage): 14 days after application, scale 0-100; for Pre-emerge Herbicidal Activity RICE: crop damage, phytotoxicity rating 0-100 at 14 days after application
Outline: (§1)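 Fourteen days after spraying, crop and weed injury was graded visually from 0, no effect, to 100, every plant dead. Test substances were dissolved in acetone and applied at 15–1000 g ai/ha with a flat-fan nozzle. Application was either pre-emergence, one day after sowing, or post-emergence at the 2–3 leaf stage.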

[2] = tested on: field corn (Zea mays L., var. Dekalb 535, CORN); experiment: Pre-emerge test, crop safety; conditions: pre-emerge; for phytotoxicity rating CORN (crop damage): 14 days after application, scale 0-100; for Pre-emerge Herbicidal Activity CORN: crop damage, phytotoxicity rating 0-100 at 14 days after application
Outline: as §1

[3] = tested on: upland rice (Oryza sp., var. Tebonnet, RICE); experiment: Post-emerge test, crop safety; conditions: post-emerge; for RICE phytotoxicity rating (crop damage): 14 days after application, rating scale 0-100; for Post-emerge Herbicidal Activity RICE: crop damage rating 0-100 at 14 days after application
Outline: (§2)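 Visual ratings on a 0-100 scale (0 no damage, 100 all plants dead) were taken at 14 days after treatment. Rates of 15-1000 g ai/ha in acetone, 187 l/ha, were sprayed onto soil one day after planting (pre-emerge) or onto 2-3 leaf plants with 0.25% v/v surfactant (post-emerge).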

[4] = tested on: field corn (Zea mays L., var. Dekalb 535, CORN); experiment: Post-emerge test, crop safety; conditions: post-emerge; for CORN phytotoxicity rating (crop damage): 14 days after application, rating scale 0-100; for Post-emerge Herbicidal Activity CORN: crop damage rating 0-100 at 14 days after application
Outline: as §2

[5] = tested on: johnsongrass (Sorghum halepense, SORHA); experiment: Pre-emerge test, greenhouse herbicide activity screening; conditions: pre-emerge; for phytotoxicity rating SORHA: 14 days after application, scale 0-100; for Pre-emerge Herbicidal Activity SORHA: phytotoxicity rating 0-100 at 14 days after application
Outline: as §2

[6] = tested on: large crabgrass (Digitaria sanguinalis, DIGSA); experiment: as above; conditions: pre-emerge; for phytotoxicity rating DIGSA: 14 days after application, scale 0-100; for Pre-emerge Herbicidal Activity DIGSA: phytotoxicity rating 0-100 at 14 days after application
Outline: as §2

[7] = tested on: barnyardgrass (Echinochloa crus-galli, ECHCG); experiment: as above; conditions: pre-emerge; for phytotoxicity rating ECHCG: 14 days after application, scale 0-100; for Pre-emerge Herbicidal Activity ECHCG: phytotoxicity rating 0-100 at 14 days after application
Outline: as §2

[8] = tested on: green foxtail (Setaria viridis, SETVI); experiment: as above; conditions: pre-emerge; for phytotoxicity rating SETVI: 14 days after application, scale 0-100; for Pre-emerge Herbicidal Activity SETVI: phytotoxicity rating 0-100 at 14 days after application
Outline: as §2

[9] = tested on: sicklepod (Cassia obtusifolia, CASOB); experiment: as above; conditions: pre-emerge; for phytotoxicity rating CASOB: 14 days after application, scale 0-100; for Pre-emerge Herbicidal Activity CASOB: phytotoxicity rating 0-100 at 14 days after application
Outline: as §2

[10] = tested on: ivyleaf morningglory (Ipomoea hederacea, IPOHE); experiment: as above; conditions: pre-emerge; for phytotoxicity rating IPOHE: 14 days after application, scale 0-100; for Pre-emerge Herbicidal Activity IPOHE: phytotoxicity rating 0-100 at 14 days after application
Outline: as §2

[11] = tested on: velvetleaf (Abutilon theophrasti, ABUTH); experiment: as above; conditions: pre-emerge; for phytotoxicity rating ABUTH: 14 days after application, scale 0-100; for Pre-emerge Herbicidal Activity ABUTH: phytotoxicity rating 0-100 at 14 days after application
Outline: as §2

[12] = tested on: lambsquarters (Chenopodium album, CHEAL); experiment: as above; conditions: pre-emerge; for phytotoxicity rating CHEAL: 14 days after application, scale 0-100; for Pre-emerge Herbicidal Activity CHEAL: phytotoxicity rating 0-100 at 14 days after application
Outline: as §2

[13] = tested on: redroot pigweed (Amaranthus retroflexus, AMARE); experiment: as above; conditions: pre-emerge; for phytotoxicity rating AMARE: 14 days after application, scale 0-100; for Pre-emerge Herbicidal Activity AMARE: phytotoxicity rating 0-100 at 14 days after application
Outline: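 Herbicidal damage is scored 0 (none) to 100 (complete plant death) two weeks after a simulated field spray. Rates span 15–1000 g ai/ha, delivered in acetone at 187 l/ha. For post-emergence treatments, plants have 2–3 leaves and the spray carries 0.25% v/v non-ionic surfactant.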

[14] = tested on: redroot pigweed (Amaranthus retroflexus, AMARE); experiment: Post-emerge test, greenhouse herbicide activity screening; conditions: post-emerge; for AMARE phytotoxicity rating: 14 days after application, rating scale 0-100; for Post-emerge Herbicidal Activity AMARE: phytotoxicity rating 0-100 at 14 days after application
Outline: (§3)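 Compounds in acetone were track-sprayed at 15-1000 g ai/ha (187 l/ha) on sandy loam pots: pre-emerge one day after seeding, post-emerge at 2-3 leaf stage with 0.25% v/v non-ionic surfactant. Phytotoxicity was rated 14 days later on a 0 (no damage) to 100 (complete death) scale.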

[15] = tested on: large crabgrass (Digitaria sanguinalis, DIGSA); experiment: as above; conditions: post-emerge; for DIGSA phytotoxicity rating: 14 days after application, rating scale 0-100; for Post-emerge Herbicidal Activity DIGSA: phytotoxicity rating 0-100 at 14 days after application
Outline: as §3

[16] = tested on: barnyardgrass (Echinochloa crus-galli, ECHCG); experiment: as above; conditions: post-emerge; for ECHCG phytotoxicity rating: 14 days after application, rating scale 0-100; for Post-emerge Herbicidal Activity ECHCG: phytotoxicity rating 0-100 at 14 days after application
Outline: as §3

[17] = tested on: green foxtail (Setaria viridis, SETVI); experiment: as above; conditions: post-emerge; for SETVI phytotoxicity rating: 14 days after application, rating scale 0-100; for Post-emerge Herbicidal Activity SETVI: phytotoxicity rating 0-100 at 14 days after application
Outline: as §3

[18] = tested on: sicklepod (Cassia obtusifolia, CASOB); experiment: as above; conditions: post-emerge; for CASOB phytotoxicity rating: 14 days after application, rating scale 0-100; for Post-emerge Herbicidal Activity CASOB: phytotoxicity rating 0-100 at 14 days after application
Outline: as §3

[19] = tested on: ivyleaf morningglory (Ipomoea hederacea, IPOHE); experiment: as above; conditions: post-emerge; for IPOHE phytotoxicity rating: 14 days after application, rating scale 0-100; for Post-emerge Herbicidal Activity IPOHE: phytotoxicity rating 0-100 at 14 days after application
Outline: as §3

[20] = tested on: velvetleaf (Abutilon theophrasti, ABUTH); experiment: as above; conditions: post-emerge; for ABUTH phytotoxicity rating: 14 days after application, rating scale 0-100; for Post-emerge Herbicidal Activity ABUTH: phytotoxicity rating 0-100 at 14 days after application
Outline: as §3

[21] = tested on: lambsquarters (Chenopodium album, CHEAL); experiment: as above; conditions: post-emerge; for CHEAL phytotoxicity rating: 14 days after application, rating scale 0-100; for Post-emerge Herbicidal Activity CHEAL: phytotoxicity rating 0-100 at 14 days after application
Outline: as §3

Compound: COc1c(Cl)cc(F)c(-n2c(=O)cc(C(F)(F)F)n(C)c2=O)c1NC(=O)COc1ccc(F)cc1 [2-133]
- phytotoxicity rating RICE (crop damage) ([1]; 63 g ai/ha): 70
- phytotoxicity rating RICE (crop damage) ([1]; 250 g ai/ha): 93
- phytotoxicity rating CORN (crop damage) ([2]; 63 g ai/ha): 20
- phytotoxicity rating CORN (crop damage) ([2]; 250 g ai/ha): 80
- RICE phytotoxicity rating (crop damage) ([3]; 63 g ai/ha): 80
- RICE phytotoxicity rating (crop damage) ([3]; 250 g ai/ha): 95
- CORN phytotoxicity rating (crop damage) ([4]; 63 g ai/ha): 70
- CORN phytotoxicity rating (crop damage) ([4]; 250 g ai/ha): 95
- phytotoxicity rating SORHA ([5]; 63 g ai/ha): 75
- phytotoxicity rating SORHA ([5]; 250 g ai/ha): 100
- phytotoxicity rating DIGSA ([6]; 63 g ai/ha): 95
- phytotoxicity rating DIGSA ([6]; 250 g ai/ha): 100
- phytotoxicity rating ECHCG ([7]; 63 g ai/ha): 65
- phytotoxicity rating ECHCG ([7]; 250 g ai/ha): 95
- phytotoxicity rating SETVI ([8]; 63 g ai/ha): 95
- phytotoxicity rating SETVI ([8]; 250 g ai/ha): 100
- phytotoxicity rating CASOB ([9]; 63 g ai/ha): 55
- phytotoxicity rating CASOB ([9]; 250 g ai/ha): 100
- phytotoxicity rating IPOHE ([10]; 63 g ai/ha): 80
- phytotoxicity rating IPOHE ([10]; 250 g ai/ha): 100
- phytotoxicity rating ABUTH ([11]; 63 g ai/ha): 100
- phytotoxicity rating ABUTH ([11]; 250 g ai/ha): 100
- phytotoxicity rating CHEAL ([12]; 63 g ai/ha): 100
- phytotoxicity rating CHEAL ([12]; 250 g ai/ha): 100
- phytotoxicity rating AMARE ([13]; 63 g ai/ha): 100
- phytotoxicity rating AMARE ([13]; 250 g ai/ha): 100
- AMARE phytotoxicity rating ([14]; 63 g ai/ha): 100
- AMARE phytotoxicity rating ([14]; 250 g ai/ha): 100
- DIGSA phytotoxicity rating ([15]; 63 g ai/ha): 30
- DIGSA phytotoxicity rating ([15]; 250 g ai/ha): 70
- ECHCG phytotoxicity rating ([16]; 63 g ai/ha): 50
- ECHCG phytotoxicity rating ([16]; 250 g ai/ha): 85
- SETVI phytotoxicity rating ([17]; 63 g ai/ha): 70
- SETVI phytotoxicity rating ([17]; 250 g ai/ha): 75
- CASOB phytotoxicity rating ([18]; 63 g ai/ha): 80
- CASOB phytotoxicity rating ([18]; 250 g ai/ha): 100
- IPOHE phytotoxicity rating ([19]; 63 g ai/ha): 90
- IPOHE phytotoxicity rating ([19]; 250 g ai/ha): 100
- ABUTH phytotoxicity rating ([20]; 63 g ai/ha): 100
- ABUTH phytotoxicity rating ([20]; 250 g ai/ha): 100
- CHEAL phytotoxicity rating ([21]; 63 g ai/ha): 100
- CHEAL phytotoxicity rating ([21]; 250 g ai/ha): 100

Compound: O=C(Nc1cc(Cl)ccc1-n1c(=O)n2n(c1=S)CCCC2)c1ccc2ccccc2c1 [9-14]
- Pre-emerge Herbicidal Activity RICE ([1]; rate 63 g ai/ha): 0
- Pre-emerge Herbicidal Activity RICE ([1]; rate 250 g ai/ha): 10
- Pre-emerge Herbicidal Activity CORN ([2]; rate 63 g ai/ha): 0
- Pre-emerge Herbicidal Activity CORN ([2]; rate 250 g ai/ha): 0
- Post-emerge Herbicidal Activity RICE ([3]; 63 g ai/ha): 0
- Post-emerge Herbicidal Activity RICE ([3]; 250 g ai/ha): 40
- Post-emerge Herbicidal Activity CORN ([4]; 63 g ai/ha): 15
- Post-emerge Herbicidal Activity CORN ([4]; 250 g ai/ha): 50
- Pre-emerge Herbicidal Activity SORHA ([5]; rate 63 g ai/ha): 0
- Pre-emerge Herbicidal Activity SORHA ([5]; rate 250 g ai/ha): 10
- Pre-emerge Herbicidal Activity DIGSA ([6]; rate 63 g ai/ha): 0
- Pre-emerge Herbicidal Activity DIGSA ([6]; rate 250 g ai/ha): 30
- Pre-emerge Herbicidal Activity ECHCG ([7]; rate 63 g ai/ha): 0
- Pre-emerge Herbicidal Activity ECHCG ([7]; rate 250 g ai/ha): 40
- Pre-emerge Herbicidal Activity SETVI ([8]; rate 63 g ai/ha): 0
- Pre-emerge Herbicidal Activity SETVI ([8]; rate 250 g ai/ha): 30
- Pre-emerge Herbicidal Activity CASOB ([9]; rate 63 g ai/ha): 0
- Pre-emerge Herbicidal Activity CASOB ([9]; rate 250 g ai/ha): 0
- Pre-emerge Herbicidal Activity IPOHE ([10]; rate 63 g ai/ha): 0
- Pre-emerge Herbicidal Activity IPOHE ([10]; rate 250 g ai/ha): 10
- Pre-emerge Herbicidal Activity ABUTH ([11]; rate 63 g ai/ha): 20
- Pre-emerge Herbicidal Activity ABUTH ([11]; rate 250 g ai/ha): 85
- Pre-emerge Herbicidal Activity CHEAL ([12]; rate 63 g ai/ha): 80
- Pre-emerge Herbicidal Activity CHEAL ([12]; rate 250 g ai/ha): 100
- Pre-emerge Herbicidal Activity AMARE ([13]; rate 63 g ai/ha): 40
- Pre-emerge Herbicidal Activity AMARE ([13]; rate 250 g ai/ha): 65
- Post-emerge Herbicidal Activity AMARE ([14]; 63 g ai/ha): 85
- Post-emerge Herbicidal Activity AMARE ([14]; 250 g ai/ha): 100
- Post-emerge Herbicidal Activity DIGSA ([15]; 63 g ai/ha): 0
- Post-emerge Herbicidal Activity DIGSA ([15]; 250 g ai/ha): 10
- Post-emerge Herbicidal Activity ECHCG ([16]; 63 g ai/ha): 0
- Post-emerge Herbicidal Activity ECHCG ([16]; 250 g ai/ha): 10
- Post-emerge Herbicidal Activity SETVI ([17]; 63 g ai/ha): 10
- Post-emerge Herbicidal Activity SETVI ([17]; 250 g ai/ha): 20
- Post-emerge Herbicidal Activity CASOB ([18]; 63 g ai/ha): 40
- Post-emerge Herbicidal Activity CASOB ([18]; 250 g ai/ha): 40
- Post-emerge Herbicidal Activity IPOHE ([19]; 63 g ai/ha): 80
- Post-emerge Herbicidal Activity IPOHE ([19]; 250 g ai/ha): 90
- Post-emerge Herbicidal Activity ABUTH ([20]; 63 g ai/ha): 100
- Post-emerge Herbicidal Activity ABUTH ([20]; 250 g ai/ha): 100
- Post-emerge Herbicidal Activity CHEAL ([21]; 63 g ai/ha): 95
- Post-emerge Herbicidal Activity CHEAL ([21]; 250 g ai/ha): 100
